Laboratory results from US20100197787A1, “Composition for Prevention of Hypoglycemic Condition” (priority 2005, published 2010).

Legend:
rat brain cells [1] = assay: Promoting activity of orally administered branched amino acid in incorporation of carbohydrate into the brain (2DG-6P amount); type: in vivo; conditions: 1 hour after oral administration of suspension, 0.45 g/15 mL/kg BW, male Wistar rats, versus control group (physiological saline), FIG. 1
Description: Leucine group: An L-leucine suspension prepared by adding 3 g L-leucine to 100 mL physiological saline and suspending it with a homogenizer was used as a test solution of leucine group. Isoleucine group: An L-isoleucine suspension prepared by adding 3 g L-isoleucine to 100 mL physiological saline and suspending it with a homogenizer was used as a test solution of isoleucine group. Male 6-week-old Wistar rats (Charles River Japan, Inc.) were kept for 14 days and given free access to food (purified feed: AIN-93G manufactured by Nippon Nosan Kogyo Co., Ltd.) and water. At the age of 8-week-old, the rats were grouped depending on the body weight into 3 groups (control group, leucine group and isoleucine group). After the grouping, under ether anesthesia, the cervical region of each rat was opened, and a catheter was inserted into the jugular vein. The other end of the catheter was passed subcutaneously, exposed on the back and connected via a harness to, and fixed to, a swivel. Then each rat was housed in a separate metabolism cage. Physiological saline was administered via the catheter continuously at a rate of 1 mL/hr/body to the rat. […] 20 μL of the plasma was placed in a vial for liquid scintillation counter measurement, and then 5 mL scintillator was added to and mixed with the plasma, which was then measured for its tritium level (count) with a liquid scintillation counter to determine the amount of 2DG. The blood glucose level was measured by a glucose oxidase dye method. […] 900 μL of the separated supernatant was placed in a vial for liquid scintillation counter measurement, and then 5 mL scintillator was added to and mixed with the supernatant, which was then measured for its tritium level (count) with a liquid scintillation counter to determine the amount of 2DG. […] 900 μL of the separated supernatant was placed in a vial for liquid scintillation counter measurement, and then 10 mL scintillator was added to and mixed with the supernatant, which was then measured for its tritium level (count) with a liquid scintillation counter to determine the amount of 2DG and 2DG-6P. […]

rat brain cells [2] = assay: Promoting activity of intravenously administered BCAA in incorporation of carbohydrate into the brain (2DG-6P amount); type: in vivo; conditions: at 24 hours after intravenous administration, 1.5% by mass in 5% by mass glucose, 10 mL/kg/hr, male SD rats, versus control group (5% glucose) and mixed amino acid group, FIG. 2
Description: Control group: A solution prepared by dissolving glucose at a concentration of 5% by mass in purified water was used as the test solution for the control group. Mixed amino acid group: A solution prepared by dissolving […] (registered trademark, manufactured by Otsuka Pharmaceutical Co., Ltd.) at a concentration of 1.5% by mass in purified water containing 5% by mass glucose was used as the test solution for the mixed amino acid group. Leucine group: A solution prepared by dissolving L-leucine at a concentration of 1.5% by mass in purified water containing 5% by mass glucose was used as the test solution for the leucine group. Isoleucine group: A solution prepared by dissolving L-isoleucine at a concentration of 1.5% by mass in purified water containing 5% by mass glucose was used as the test solution for the isoleucine group. Valine group: A solution prepared by dissolving L-valine at a concentration of 1.5% by mass in purified water containing 5% by mass glucose was used as the test solution for the valine group. Male […] SD rats (Nippon Clare) were kept for 14 days and given free access to food (purified feed: AIN-93G manufactured by Nippon Nosan Kogyo Co., Ltd.) and water. At the age of 8-week-old, the rats were grouped depending on the body weight into 5 groups (control group, mixed amino acid group, leucine group, isoleucine group and valine group). After the grouping, under ether anesthesia, the cervical region of each rat was opened, and a catheter was inserted into the jugular vein. The other end of the catheter was passed subcutaneously, exposed on the back and connected via a harness to, and fixed to, a swivel. Then each rat was housed in a separate metabolism cage. […] The separated plasma was measured for its 2DG level and blood glucose level in the same manner as in the test method in Test Example 1. […] After blood removal, the brain tissue was removed, mixed with 1N NaOH that was 4 parts of the brain tissue by weight, and then heated in a water bath at 60° C. for 1 hour to lyse the brain tissue. To the brain tissue lysate solution, 1N HCl in the same amount as that of 1N NaOH was added, thereby neutralizing the solution to give a neutralized homogenate of the brain tissue. The amount of 2DG-6P in the neutralized homogenate was measured in the same manner as in the test method in Test Example 1, to determine the amount of the carbohydrate incorporated into the brain cells. In statistical processing, after analysis of variance, Dunnett's multiple comparison with the control was carried out to test significant difference.

Structure (SMILES) | amount of the carbohydrate incorporated into brain cells (amount of 2DG-6P) (rat brain cells [1]) | amount of the carbohydrate incorporated into brain cells (amount of 2DG-6P) (rat brain cells [1]; listed as isoleucine) | amount of the carbohydrate incorporated into brain cells (amount of 2DG-6P) (rat brain cells [2]) | amount of the carbohydrate incorporated into brain cells (amount of 2DG-6P) (rat brain cells [2]; listed as isoleucine) | amount of the carbohydrate incorporated into brain cells (amount of 2DG-6P) (rat brain cells [2]; listed as valine)
CC[C@H](C)[C@H](N)C(=O)O [L-isoleucine] | higher than that of the control group | significantly promoted | higher than that of the control group and of the mixed amino acid group | tendency to promote incorporation of the carbohydrate into brain cells was recognized | 
CC(C)C[C@H](N)C(=O)O [L-leucine] | higher than that of the control group |  | higher than that of the control group and of the mixed amino acid group |  | 
CC(C)[C@H](N)C(=O)O [L-valine] |  |  | higher than that of the control group and of the mixed amino acid group |  | tendency to promote incorporation of the carbohydrate into brain cells was recognized
